We go through 16 compounds from patent US20120220482A1, “COMPOSITIONS AND METHODS FOR SCREENING PEPTOID LIBRARIES” (The Board of Regents of the University of Texas System, priority 2011, published 2012).

Square brackets hold non-standard residues; d marks the D form. Peptide text beside a SMILES is read from it. * marks the point of attachment. N(4-Sulfamoylphenethyl)Gly = NS(=O)(=O)c1ccc(CCNCC(=O)O)cc1; Gly(N-piperonyl) = O=C(O)CNCc1ccc2c(c1)OCO2; hSer(lactone) = O=C1OCC[C@@H]1N*; NFurfurylGly = O=C(O)CNCc1ccco1; NAllylGly = C=CCNCC(=O)O

The first assay has as its target M2 monoclonal anti-flag antibody. Description: Microarray binding of spotted hits titrated with anti-FLAG antibody. Further details: species or system mouse. The conditions noted are these: apparent KD from microarray binding curves with decreasing anti-FLAG antibody concentrations; NA = spot not bound by anti-FLAG antibody. As for the experimental part: (§1) A total of 16 copies of each array of 100 compounds (the hits and various controls) were spotted onto each microscope slide. Each array, isolated by applying a Whatman Fast Frame to the slide, was then incubated for 2 hr with either anti-Myc antibody or various concentrations of anti-FLAG antibody. After washing, the amount of antibody captured at each spot was quantified by subsequent hybridization with fluorescently labeled secondary antibody, another wash, drying, and scanning. […] No binding of the anti-FLAG antibody to the Myc peptide was observed, nor was binding of the anti-Myc antibody to any of the hits or the FLAG peptide.
Microarray Spotting, Hybridization, and Data Analysis. Contents of the 384-well plates were printed onto maleimide-coated glass slides with a NanoPrint LM 360 (TeleChem International Inc., Sunnyvale, Calif.) with MP946 Micro Spotting Pins. A 10% ethanol (EM-AX007309; Midwest Grain Products) and water mixture was used to wash the pins before printing and after spotting of each compound. Multiple wash/sonicate/dry cycles were used between each sample pick-up and print cycle. Spots were printed on the slide to fit within the wells of a 16-well Whatman Fast Frame (Whatman no. 10486003), which allows 16 isolated hybridization events on a single slide. Slides were left in 50% humidity for 12 hr […]. After printing, the humidifier was turned off and the slides were left for at least 12 hr before free maleimide groups were blocked with 2% β-mercaptoethanol in DMF for 1 hr by placing the slides in glass slide holders inside of glass containers on a shaker in the chemical hood. Slides were washed sequentially with DMF for 30 min, tetrahydrofuran for 30 min, DMF for 30 min, acetonitrile thrice for 20 min, isopropanol thrice for 20 min, 13 TBST once for 20 min, then 0.13 TBST once for 20 min. Washed slides were spun dry for 5 min at 2000 rpm.
Dry slides were placed inside the Whatman Fast Frame following the provided instructions, and each of the 16 wells per slide was blocked with 100 μl of StartingBlock (Fisher) for 1 hr at RT with a multichannel pipetteman. Wells were drained and washed once with […] TBST. TBST was drained one well at a time before adding 100 μl of appropriate concentrations of protein(s) diluted in 1:1 TBST:StartingBlock. The FastFrame was placed on wet paper towels inside of a glass cake pan, which was sealed with Glad Press'n Seal and placed on an orbital shaker for 2-4 hr at RT. Each well was washed with TBST six times before adding 4 μg/ml Alexa647 goat anti-mouse IgG secondary antibodies diluted in 1:1 TBST:StartingBlock for 1 hr at RT. Slides were washed five times for 3 min with 13 TBST, then once with 0.13 TBST, spun dry at 2000 rpm, then scanned using a GenePix Autoloader 4200AL Scanner (Molecular Devices, Sunnyvale Calif.). Slides were scanned with a power of 1003 and photomultiplier tube setting of 5003-6003. Gal files were created and used to determine fluorescence intensity of each of the spots with GenePixPro6.0. Gal files were aligned manually, then automatic spotfinding followed by manual correction of spots performed for each of the scanned slides. GPR files were created and median fluorescence-background fluorescence values for each of the spots were cut and pasted in Excel and arranged (using simple macros) to simplify transferring results to GraphPad Prism 5.0 software for binding curve analyses.
Regarding `NCCCC[C@@H](N)C(=O)N[C@H](Cc1ccc(O)cc1)C(=O)N[C@H](Cc1ccc(O)cc1)C(=O)N[C@H](CCC(=O)O)C(=O)N[C@H](CC(N)=O)C(=O)N(CC(=O)N(CC(=O)N[C@H]1CCOC1=O)Cc1ccco1)Cc1ccc2c(c1)OCO2` [Spot H7] (H-[dK][dY][dY][dE][dN][Gly(N-piperonyl)][NFurfurylGly]-{hSer(lactone)}), the Kd was 9 nM.
The same measure, in the same setting: the result for `C[C@@H](NC(=O)[C@@H](Cc1ccc(O)cc1)NC(=O)[C@@H](CCCCN)NC(=O)[C@H](N)CC(N)=O)C(=O)N[C@H](CC(=O)O)C(=O)N[C@H](CC(=O)O)C(=O)N(CC(=O)N[C@H]1CCOC1=O)Cc1ccco1` [Spot A7] (H-[dN][dK][dY][dA][dD][dD][NFurfurylGly]-{hSer(lactone)}; C-terminus assumed) reads 5 nM.
Still for that read-out and setting: the result for `NCCCC[C@@H](N)C(=O)N[C@H](Cc1ccc(O)cc1)C(=O)N[C@H](CC(=O)O)C(=O)N(CCc1ccc(S(N)(=O)=O)cc1)CC(=O)N(CCc1ccc(S(N)(=O)=O)cc1)CC(=O)N[C@H](CC(=O)O)C(=O)N(CC(=O)N[C@H]1CCOC1=O)Cc1ccco1` [Spot H2] (H-[dK][dY][dD][N(4-Sulfamoylphenethyl)Gly][N(4-Sulfamoylphenethyl)Gly][dD][NFurfurylGly]-{hSer(lactone)}) reads 5 nM; that for `C[C@@H](NC(=O)[C@@H](Cc1ccc(O)cc1)NC(=O)[C@@H](CCCCN)NC(=O)[C@@H](Cc1ccccc1)NC(=O)[C@H](N)CC(=O)O)C(=O)N[C@H](CCC(=O)O)C(=O)N(CC(=O)N[C@H]1CCOC1=O)Cc1ccco1` [Spot E8] (H-[dD][dF][dK][dY][dA][dE][NFurfurylGly]-{hSer(lactone)}; C-terminus assumed), 9 nM; that for `NCCCC[C@@H](N)C(=O)N[C@H](Cc1ccc(O)cc1)C(=O)N[C@H](CC(=O)O)C(=O)N[C@H](Cc1c[nH]c2ccccc12)C(=O)N[C@H](CCC(=O)O)C(=O)NCC(=O)N(CC(=O)N[C@H]1CCOC1=O)Cc1ccco1` [Spot H6] (H-[dK][dY][dD][dW][dE]G[NFurfurylGly]-{hSer(lactone)}; C-terminus assumed), 11 nM.
Still for that read-out and setting: the result for `NCCCC[C@@H](NC(=O)[C@H](N)CC(=O)O)C(=O)N[C@H](Cc1ccc(O)cc1)C(=O)N[C@H](Cc1ccccc1)C(=O)N[C@H](CO)C(=O)N(CCc1ccc(S(N)(=O)=O)cc1)CC(=O)N(CC(=O)N[C@H]1CCOC1=O)Cc1ccco1` [Spot B8] (H-[dD][dK][dY][dF][dS][N(4-Sulfamoylphenethyl)Gly][NFurfurylGly]-{hSer(lactone)}) reads 9 nM; that for `C=CCNCC(=O)N[C@@H](C(=O)N[C@H](CCCCN)C(=O)N[C@H](Cc1ccc(O)cc1)C(=O)N[C@H](CC(=O)O)C(=O)N[C@H](CC(=O)O)C(=O)N(CC(=O)N[C@H]1CCOC1=O)Cc1ccco1)[C@H](C)O` [Spot B1] (H-[NAllylGly][dT][dK][dY][dD][dD][NFurfurylGly]-{hSer(lactone)}), 3 nM; that for `C=CCN(CC(=O)N[C@H](CCC(=O)O)C(=O)N[C@H](CC(C)C)C(=O)N(CC(=O)N[C@H]1CCOC1=O)Cc1ccco1)C(=O)[C@@H](CC(=O)O)NC(=O)[C@@H](Cc1ccc(O)cc1)NC(=O)[C@H](N)CCCCN` [Spot H9] (H-[dK][dY][dD][NAllylGly][dE][dL][NFurfurylGly]-{hSer(lactone)}; C-terminus assumed), 4 nM.
In the case of `NCCCC[C@@H](N)C(=O)N[C@H](Cc1ccc(O)cc1)C(=O)N[C@H](Cc1ccc(O)cc1)C(=O)N[C@H](CC(N)=O)C(=O)N[C@H](CC(=O)O)C(=O)N(CC(=O)N(CC(=O)N[C@H]1CCOC1=O)Cc1ccco1)Cc1ccc2c(c1)OCO2` [Spot D5] (H-[dK][dY][dY][dN][dD][Gly(N-piperonyl)][NFurfurylGly]-{hSer(lactone)}), the Kd worked out at 7 nM.
On the same count and under the same terms, the result for `NCCCC[C@@H](NC(=O)[C@@H](CC(=O)O)NC(=O)[C@H](N)Cc1c[nH]c2ccccc12)C(=O)N[C@H](Cc1ccc(O)cc1)C(=O)N[C@H](Cc1c[nH]cn1)C(=O)N(CCc1ccc(S(N)(=O)=O)cc1)CC(=O)N(CC(=O)N[C@H]1CCOC1=O)Cc1ccco1` [Spot H8] (H-[dW][dD][dK][dY][dH][N(4-Sulfamoylphenethyl)Gly][NFurfurylGly]-{hSer(lactone)}) reads 2 nM.
Turning to `N=C(N)NCCC[C@@H](NC(=O)[C@@H](Cc1ccc(O)cc1)NC(=O)[C@@H](CCCCN)NC(=O)[C@H](N)CCC(=O)O)C(=O)N[C@H](Cc1ccc(O)cc1)C(=O)N[C@H](Cc1c[nH]c2ccccc12)C(=O)N(CC(=O)N[C@H]1CCOC1=O)Cc1ccco1` [Spot B4] (H-[dE][dK][dY][dR][dY][dW][NFurfurylGly]-{hSer(lactone)}; C-terminus assumed), the Kd came out at 7 nM.
As for `NCCCC[C@@H](N)C(=O)N[C@H](Cc1ccc(O)cc1)C(=O)N[C@H](CCC(=O)O)C(=O)N[C@H](Cc1ccc(O)cc1)C(=O)N[C@H](CCC(=O)O)C(=O)N[C@H](Cc1ccc(O)cc1)C(=O)N(CC(=O)N[C@H]1CCOC1=O)Cc1ccco1` [Spot H1] (H-[dK][dY][dE][dY][dE][dY][NFurfurylGly]-{hSer(lactone)}; C-terminus assumed), the Kd stood at 6 nM.
In the case of `NCCCC[C@@H](NC(=O)[C@@H](CO)NC(=O)[C@H](N)CCC(=O)O)C(=O)N[C@H](Cc1ccc(O)cc1)C(=O)N[C@H](CC(=O)O)C(=O)N[C@H](Cc1ccc(O)cc1)C(=O)N(CC(=O)N[C@H]1CCOC1=O)Cc1ccco1` [Spot B9] (H-[dE][dS][dK][dY][dD][dY][NFurfurylGly]-{hSer(lactone)}; C-terminus assumed), the Kd came out at 2 nM.
For the compound `CC(C)C[C@@H](N)C(=O)N[C@H](CC(=O)O)C(=O)N[C@H](CCCCN)C(=O)N[C@H](Cc1ccc(O)cc1)C(=O)N[C@H](CCC(=O)O)C(=O)N[C@H](Cc1c[nH]c2ccccc12)C(=O)N(CC(=O)N[C@H]1CCOC1=O)Cc1ccco1` [Spot B7] (H-[dL][dD][dK][dY][dE][dW][NFurfurylGly]-{hSer(lactone)}; C-terminus assumed), the Kd was found to be 6 nM.
Take `C=CCN(CC(=O)N(CC(=O)N[C@H]1CCOC1=O)Cc1ccco1)C(=O)[C@@H](CC(=O)O)NC(=O)CNC(=O)CN(Cc1ccc2c(c1)OCO2)C(=O)[C@@H](Cc1ccc(O)cc1)NC(=O)[C@H](N)CCCCN` [Spot E4] (H-[dK][dY][Gly(N-piperonyl)]G[dD][NAllylGly][NFurfurylGly]-{hSer(lactone)}): the Kd was 8 nM.

The assay is the same for the next values; noted with them: microarray, fluorescently labeled secondary antibody.
Consider “N-Asp-Tyr-Lys-Asp-Asp-Asp-Asp-Lys-C [FLAG peptide]”, for which the “binding of anti-FLAG antibody to spotted compound” value was “binds”.

A further assay has as its system anti-FLAG antibody. Description: Competition experiment: anti-FLAG antibody pre-incubated with excess soluble peptide before hybridization to the array. Format: binding, mouse. The conditions noted are these: antibody first incubated with excess peptide. Here is the method:
To address if the higher affinity hits bind to anti-FLAG antibody in the antigen-binding site, the inventors carried out a competition experiment in which the anti-FLAG antibody was first incubated with an excess of FLAG peptide or, as a control, the Myc peptide, before hybridization to the array.
With “N-Asp-Tyr-Lys-Asp-Asp-Asp-Asp-Lys-C [FLAG peptide]”, the “effect of excess soluble peptide on binding of anti-FLAG antibody to the molecules on the microarray” value was “abrogated binding”.

For the next assay, the system named is anti-Myc antibody. Kind of assay: Microarray hybridization of spotted compounds with anti-Myc antibody. The format is binding. The following applies: fluorescently labeled secondary antibody. Here is the method: as §1
Microarray Spotting, Hybridization, and Data Analysis. […]
Dry slides were placed inside the Whatman Fast Frame following the provided instructions, and each of the 16 wells per slide was blocked with 100 μl of StartingBlock (Fisher) for 1 hr at RT with a multichannel pipetteman. […] Gal files were created and used to determine fluorescence intensity of each of the spots with GenePixPro6.0. […] GPR files were created and median fluorescence-background fluorescence values for each of the spots were cut and pasted in Excel and arranged (using simple macros) to simplify transferring results to GraphPad Prism 5.0 software for binding curve analyses.
For the compound “N-Asp-Tyr-Lys-Asp-Asp-Asp-Asp-Lys-C [FLAG peptide]”, the “binding of anti-Myc antibody to spotted compound” value was “No binding”.
